Measured values from the supplement of paper PMC6045584.
± gives the standard deviation of the averaged measurements.

Experiments:
AFATINIB = compound: CN(C)C/C=C/C(=O)Nc1cc2c(Nc3ccc(F)c(Cl)c3)ncnc2cc1O[C@H]1CCOC1 [AFATINIB]; assay: surviving fraction relative to DMSO-only wells; higher = less growth inhibition; conditions: exposure time: 5 days
Summary of the method: (§1)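 Inhibitors at 0.5, 1, 5, 10, 50, 100, 500 and 1000 nM were applied continuously for five days to tumour cell lines seeded in log phase at 250–500 cells per well in 384-well plates 24 hours earlier. Viability was measured by CellTiter-Glo luminescence and expressed as surviving fraction relative to the median of DMSO-only wells. Luminescence was taken after 10 minutes at room temperature.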

TIOGUANINE = compound: Nc1nc2[nH]cnc2c(=S)[nH]1 [TIOGUANINE]; assay: as above; conditions: exposure time: 5 days
Summary of the method: as §1

| Test System | surviving fraction (AFATINIB; 0.5 nM) | surviving fraction (AFATINIB; 1 nM) | surviving fraction (AFATINIB; 5 nM) | surviving fraction (AFATINIB; 10 nM) | surviving fraction (AFATINIB; 50 nM) | surviving fraction (AFATINIB; 100 nM) | surviving fraction (AFATINIB; 500 nM) | surviving fraction (AFATINIB; 1000 nM) | surviving fraction (TIOGUANINE; 0.5 nM) | surviving fraction (TIOGUANINE; 1 nM) | surviving fraction (TIOGUANINE; 5 nM) | surviving fraction (TIOGUANINE; 10 nM) | surviving fraction (TIOGUANINE; 50 nM) | surviving fraction (TIOGUANINE; 100 nM) | surviving fraction (TIOGUANINE; 500 nM) | surviving fraction (TIOGUANINE; 1000 nM) |
| --- | --- | --- | --- | --- | --- | --- | --- | --- | --- | --- | --- | --- | --- | --- | --- | --- |
| CAL51 BREAST | 0.97 ± 0.048 | 1.02 ± 0.022 | 1.002 ± 0.0031 | 0.977 ± 0.033 | 1.04 ± 0.019 | 1.02 ± 0.028 | 0.963 ± 0.085 | 0.682 ± 0.06 | 0.984 ± 0.03 | 0.965 ± 0.017 | 0.999 ± 0.018 | 1 ± 0.031 | 1.03 ± 0.049 | 1.06 ± 0.038 | 0.992 ± 0.051 | 0.979 ± 0.026 |
| COLO320DM LARGE INTESTINE | 1.14 ± 0.075 | 1.06 ± 0.088 | 1.08 ± 0.14 | 1.06 ± 0.073 | 1.04 ± 0.083 | 1.04 ± 0.08 | 0.872 ± 0.093 | 0.634 ± 0.037 | 1.13 ± 0.03 | 1.1 ± 0.056 | 1.003 ± 0.0076 | 1.09 ± 0.067 | 1.03 ± 0.019 | 1.09 ± 0.049 | 1.078 ± 0.0053 | 1.04 ± 0.049 |
| SKBR3 BREAST | 0.866 ± 0.033 | 0.699 ± 0.049 | 0.322 ± 0.015 | 0.265 ± 0.013 | 0.167 ± 0.011 | 0.131 ± 0.007 | 0.119 ± 0.0076 | 0.122 ± 0.006 | 1.03 ± 0.087 | 0.956 ± 0.13 | 0.946 ± 0.13 | 1.04 ± 0.17 | 1.11 ± 0.11 | 0.939 ± 0.03 | 1.08 ± 0.17 | 1.05 ± 0.045 |
| HMLE3 BREAST | 0.989 ± 0.042 | 1.02 ± 0.034 | 0.993 ± 0.054 | 0.904 ± 0.074 | 0.905 ± 0.035 | 0.946 ± 0.04 | 0.842 ± 0.087 | 0.77 ± 0.021 | 0.914 ± 0.068 | 0.902 ± 0.015 | 0.95 ± 0.028 | 0.974 ± 0.019 | 0.97 ± 0.1 | 0.945 ± 0.072 | 0.905 ± 0.049 | 0.851 ± 0.09 |
| HMT3552 BREAST | 0.823 | 0.878 | 0.885 | 0.727 | 0.904 | 0.881 | 0.593 | 0.278 | 1.11 | 1.06 | 1.05 | 1.04 | 1.05 | 1.12 | 0.591 | 0.38 |
| SNU475 LIVER | 1.01 ± 0.03 | 0.985 ± 0.029 | 0.953 ± 0.062 | 0.937 ± 0.028 | 0.922 ± 0.024 | 0.893 ± 0.054 | 0.717 ± 0.012 | 0.432 ± 0.027 | 0.949 ± 0.025 | 0.963 ± 0.02 | 0.961 ± 0.036 | 0.957 ± 0.028 | 0.966 ± 0.099 | 0.992 ± 0.025 | 0.899 ± 0.054 | 0.916 ± 0.012 |
| OS25HAL BONE | 0.966 ± 0.014 | 1.01 ± 0.018 | 1 ± 0.029 | 1 ± 0.044 | 1.03 ± 0.039 | 1.08 ± 0.013 | 1.02 ± 0.03 | 0.855 ± 0.085 | 0.943 ± 0.015 | 0.951 ± 0.017 | 0.967 ± 0.0017 | 0.933 ± 0.027 | 1 ± 0.024 | 1.01 ± 0.033 | 1.002 ± 0.0066 | 0.955 ± 0.032 |
| SG43 HEADNECK | 1.03 ± 0.33 | 0.966 ± 0.27 | 0.362 ± 0.022 | 0.414 ± 0.18 | 0.301 ± 0.11 | 0.181 ± 0.044 | 0.182 ± 0.046 | 0.0613 ± 0.035 | 1 ± 0.073 | 0.986 ± 0.23 | 0.684 ± 0.14 | 0.988 ± 0.083 | 0.778 ± 0.18 | 0.895 ± 0.15 | 0.91 ± 0.1 | 1.11 ± 0.13 |
| PCI30 HEADNECK | 1.01 ± 0.1 | 0.94 ± 0.073 | 0.616 ± 0.019 | 0.459 ± 0.0087 | 0.4 ± 0.022 | 0.358 ± 0.035 | 0.241 ± 0.063 | 0.064 ± 0.011 | 0.892 ± 0.097 | 0.847 ± 0.013 | 0.978 ± 0.097 | 1.02 ± 0.047 | 1.02 ± 0.063 | 1.03 ± 0.016 | 0.918 ± 0.045 | 0.88 ± 0.072 |
| SYO1 SYNOVIAL | 0.996 ± 0.057 | 1.03 ± 0.027 | 0.948 ± 0.059 | 0.995 ± 0.026 | 0.95 ± 0.017 | 0.952 ± 0.042 | 0.606 ± 0.035 | 0.324 ± 0.02 | 0.941 ± 0.043 | 0.925 ± 0.042 | 0.917 ± 0.075 | 0.896 ± 0.021 | 0.785 ± 0.029 | 0.645 ± 0.043 | 0.411 ± 0.022 | 0.354 ± 0.028 |
| CHLA90 AUTONOMIC GANGLIA | 0.991 ± 0.042 | 0.981 ± 0.056 | 0.839 ± 0.063 | 0.849 ± 0.077 | 0.819 ± 0.017 | 0.796 ± 0.052 | 0.775 ± 0.051 | 0.593 ± 0.036 | 0.95 ± 0.029 | 0.99 ± 0.04 | 1 ± 0.038 | 0.948 ± 0.034 | 0.96 ± 0.043 | 0.913 ± 0.08 | 0.88 ± 0.057 | 0.912 ± 0.048 |
| MFM223 BREAST | 1.13 ± 0.076 | 1.16 ± 0.11 | 1.13 ± 0.097 | 1.13 ± 0.031 | 1.11 ± 0.086 | 1.04 ± 0.1 | 0.803 ± 0.059 | 0.365 ± 0.021 | 1.01 ± 0.13 | 0.997 ± 0.062 | 1.09 ± 0.037 | 1.041 ± 0.009 | 1.13 ± 0.031 | 1.13 ± 0.045 | 1.05 ± 0.074 | 1 ± 0.068 |
